Assay results reported in US5726195A, “Aminoacyl adenylate mimics as novel antimicrobial and antiparasitic agents” (Cubist Pharmaceuticals, Inc., priority 1996, dated 1998).
≈ marks a conversion by molar mass, not a printed value.

What was measured:
H. influenza ATCC 49247 = assay: Whole cell antimicrobial screen, MIC; format: cell-based
How it was run: (§1)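 Broth microdilution following NCCLS: two-fold dilutions (final 0.1–500 μg/mL, ≤1% DMSO) with 5×10^4 cells in 100 μL of appropriate medium, e.g. Mueller-Hinton broth. After overnight incubation at 30–37 °C, growth was read by optical density, and MIC is the lowest concentration inhibiting growth.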

B. subtilis ATCC 6633 = assay: Whole cell antimicrobial screen, MIC; format: cell-based; conditions: Bacillus subtilis, ATCC6633
How it was run: as §1

E. faecium ATCC 6569 = assay: Whole cell antimicrobial screen, MIC; format: cell-based; conditions: Enterococcus faecium, ATCC6569
How it was run: as §1

K. pneumonia ATCC 4352 = assay: Whole cell antimicrobial screen, MIC; format: cell-based; conditions: Klebsiella pneumoniae, ATCC4352
How it was run: as §1

[1] = system: S. saprophyticus ATCC 35552; assay: Whole cell antimicrobial screen, MIC; format: cell-based; conditions: Staphylococcus saprophyticus, ATCC35552
How it was run: as §1

[2] = system: S. epidermidis ATCC 33501; assay: Whole cell antimicrobial screen, MIC; format: cell-based; conditions: Staphylococcus epidermidis, ATCC33501
How it was run: as §1

S. aureus ATCC 14154 = assay: Whole cell antimicrobial screen, MIC; format: cell-based; conditions: Staphylococcus aureus, ATCC14154
How it was run: as §1

[3] = system: M. catarrhalis ATCC 25240; assay: Whole cell antimicrobial screen, MIC; format: cell-based; conditions: Moraxella catarrhalis, ATCC25240
How it was run: as §1

C. albicans ATCC 10231 = assay: Whole cell antimicrobial screen, MIC; format: cell-based; conditions: Candida albicans, ATCC10231
How it was run: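 MIC = lowest compound concentration inhibiting growth, judged from optical density after overnight incubation at 30° C.-37° C. Inoculum was 5×10^4 cells per well in media such as Mueller-Hinton Broth, with twofold dilutions spanning 0.1 μg/mL-500 μg/mL.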

E. faecalis ATCC 33011 = assay: Whole cell antimicrobial screen, MIC; format: cell-based; conditions: Enterococcus faecalis, ATCC33011
How it was run: as §1

[4] = system: Streptococcus pyogenes (ATCC 8668); assay: Mouse protection test against wild type Streptococcus pyogenes; format: in vivo, Streptococcus pyogenes; female CD-1 mice; conditions: for Protective % / Number of Alive: repeated at 4 hours, 7 days; for Number of Alive: of 5 mice
Text: The mouse protection test is an industry standard for measuring the efficacy of a test compound in vivo [for examples of this model see J. J. Clement, et al., Antimicrobial Agents and Chemotherapy, 38 (5), 1071-1078, (1994)]. As exemplified below, this test was used to show the in vivo efficacy of the compounds of the present invention against bacteria.
The in vivo antibacterial activity of compound X was established by infecting female CD-1 mice (Charles River Lab, Massachusettes) weighing 20-24 g intraperitoneally with Streptococcus pyogenes inoculum. The inoculum was prepared from Streptococcus pyogenes (ATCC 8668) which was cultured in brain heart infusion broth (Baltimore Biological Laboratories,Maryland) at 37° C. for 18 hr, and then 0.1 ml of the overnight culture was diluted with the medium to 5.0 ml for reading its OD at 600 nm (0.017). The turbidity of a 0.5 McFarland standard is equivalent to OD600 0.1, or 10^8 cfu/ml. Then, 8×10^5 cfu of the bacteria (940 μl of 1:1000 overnight culture) was added to 20 ml of phosphate buffered saline (Sigma P-0261 ) containing 5% hog gastric mucin (Sigma M-2378). All animals were injected with 0.5 ml of the inoculum, equivalent to 2×10^4 cfu/mouse which is the dose causing ~100% death of the animals without treatment.
Compound X (50 mg) was dissolved in 5.0 ml of 0.05M Tris.HCl (pH 8.8) to give a solution of 10 mg/ml. This solution was serially diluted with 0.05 M Tris.HCl by 5-fold (1.0 ml to 5.0 ml) to give 2, 0.4 and 0.08 mg/ml solutions. The known antibiotic erythromycin (Sigma E-6376, in phosphate buffered saline, 1 mg/ml, pH 7.0) was used as a positive control. All the solutions were filtered with 0.2 μm Nalgene syringe filter. Immediately after the bacterial inoculation, group 1 animals were subcutaneously (sc) injected with 0.05M Tris.HCl (no antibiotic) and groups 2 to 5 were given compound X sc at 0.8, 4, 20, and 100 mg/kg, respectively. Group 6 animals received erythromycin sc at 10 mg/kg. These injections were repeated once at 4 hours after the inoculation for the respective groups. The injection volume at each time was 10 ml per kilogram of body weight. The 50% protective dose (PD50) is calculated on the basis of the number of mice surviving 7 days after inoculation.

SMILES: CC[C@H](C)[C@H](N)C(=O)NS(=O)(=O)OC[C@H]1O[C@@H](CCn2nnc(-c3ccc(Oc4ccccc4)cc3)n2)[C@H](O)[C@@H]1O [Compound X, [S-(R*,R*)]-3,6-anhydro-1,2-dideoxy-1-[5-(4-phenoxyphenyl)-2H-tetrazol-2-yl]-D-allo-heptitol 7-(2-amino-3-methyl-1-oxopentyl)sulfamate]
- MIC (H. influenza ATCC 49247): 100 µg/mL (≈ 169 µM)
- MIC (B. subtilis ATCC 6633): 10 µg/mL (≈ 16.9 µM)
- MIC (E. faecium ATCC 6569): 10 µg/mL (≈ 16.9 µM)
- MIC (K. pneumonia ATCC 4352): 50 µg/mL (≈ 84.7 µM)
- MIC [1]: 5 µg/mL (≈ 8.47 µM)
- MIC [2]: 2 µg/mL (≈ 3.39 µM)
- MIC (S. aureus ATCC 14154): 25 µg/mL (≈ 42.3 µM)
- MIC [3]: 25 µg/mL (≈ 42.3 µM)
- MIC (C. albicans ATCC 10231): > 500 µg/mL
- MIC (E. faecalis ATCC 33011): 300 µg/mL (≈ 508 µM)
- Protective % ([4]; 4 mg/kg sc): 0%
- Number of Alive ([4]; 4 mg/kg sc): 0
- Protective % ([4]; 20 mg/kg sc): 40%
- Number of Alive ([4]; 20 mg/kg sc): 2
- Protective % ([4]; 100 mg/kg sc): 100%
- Number of Alive ([4]; 100 mg/kg sc): 5
- ED50 ([4]; Streptococcus pyogenes, ATCC8668, 168 h, sc, mice surviving 7 days after inoculation, wild type, read-out: PD50 (50% protective dose)): 21.1 mg/kg
